# From patent US9604975B2, “Indolyl-pyridone derivatives having checkpoint kinase 1 inhibitory activity” (Vernalis (R&D) Ltd., priority 2009, dated 2017)
# pIC50: −log10 of the molar value.
# Target: T1, CHK1 (Homo sapiens, UniProt O14757)
# T1 construct: His; purchased Invitrogen
# T1 sequence (O14757 1-476): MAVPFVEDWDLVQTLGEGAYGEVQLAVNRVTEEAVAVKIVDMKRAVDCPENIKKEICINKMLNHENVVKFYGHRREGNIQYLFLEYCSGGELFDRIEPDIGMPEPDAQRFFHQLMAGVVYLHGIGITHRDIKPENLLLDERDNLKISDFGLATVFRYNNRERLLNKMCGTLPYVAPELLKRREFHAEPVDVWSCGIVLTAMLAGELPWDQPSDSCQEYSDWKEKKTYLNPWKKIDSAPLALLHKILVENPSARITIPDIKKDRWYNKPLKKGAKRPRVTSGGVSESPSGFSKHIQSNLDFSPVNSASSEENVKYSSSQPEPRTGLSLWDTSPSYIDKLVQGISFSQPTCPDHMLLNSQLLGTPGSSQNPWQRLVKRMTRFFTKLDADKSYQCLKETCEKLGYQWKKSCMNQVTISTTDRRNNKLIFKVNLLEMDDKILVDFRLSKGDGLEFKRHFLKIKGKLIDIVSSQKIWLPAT
# Assay: CHK1 Enzyme Assay (phosphorylation of Chktide peptide, 33P-ATP filter assay)
# Format: biochemical
# Conditions: 12.5 nM His-CHK1, 0.01 mM ATP, 40 minutes at 30° C.; read-out: CHK1 Enzyme Activity (IC50 range)
# Method: Assays for the CHK1 kinase activity were carried out by monitoring the phosphorylation of a synthetic peptide Chktide with the amino acid sequence, […]. The assay mixture containing the inhibitor and CHK1 enzyme was mixed together in a microtiter plate in a final volume of 50 μl and incubated for 40 minutes at 30° C.
# The assay mixture contained 0.01 mM unlabeled ATP, 0.5 μCi ^33P-γ-ATP, 14.8 μM Chktide, 0.1 mg/mL BSA, 50 mM Hepes-NaOH pH 7.5 and 12.5 nM His-CHK1 (Invitrogen) enzyme. The reaction was stopped by adding 50 μL of 50 mM phosphoric acid. 90 μL of the mixture was transferred to a pre-wetted 96-well multi-screen MAPHNOB filtration plate (Millipore) and filtered on a vacuum manifold. The filter plate was washed with 3 successive additions of 200 μl 50 mM phosphoric acid and then with 100 μL methanol. The filtration plate was dried for 10 min at 65° C., scintillant added and phosphorylated peptide quantified in a scintillation counter (Trilux, PerkinElmer).
row,Compound,pIC50
1,"O=C(Nc1c[nH]c(=O)c(-c2cc3ccccc3[nH]2)c1)c1cnn(Cc2cccc(Cl)c2)c1 [Example 27, 1-(3-Chloro-benzyl)-1H-pyrazole-4-carboxylic acid [5-(1H-indol-2-yl)-6-oxo-1,6-dihydro-pyridin-3-yl]-amide]",> 7.00
2,"Cc1ccc(Cn2cc(C(=O)Nc3c[nH]c(=O)c(-c4cc5ccccc5[nH]4)c3)cn2)cc1 [Example 29, 1-(4-Methyl-benzyl)-1H-pyrazole-4-carboxylic acid [5-(1H-indol-2-yl)-6-oxo-1,6-dihydro-pyridin-3-yl]-amide]",> 7.00
3,"Cc1[nH]c(=O)c(-c2cc3ccccc3[nH]2)cc1NC(=O)c1cnn(Cc2cccc(F)c2)c1 [Example 30, 1-(3-Fluoro-benzyl)-1H-pyrazole-4-carboxylic acid [5-(1H-indol-2-yl)-2-methyl-6-oxo-1,6-dihydro-pyridin-3-yl]-amide]",6.30 to 7.00
4,"Cc1[nH]c(=O)c(-c2cc3ccccc3[nH]2)cc1NC(=O)c1cnn(Cc2ccc(F)cc2)c1 [Example 32, 1-(4-Fluoro-benzyl)-1H-pyrazole-4-carboxylic acid [5-(1H-indol-2-yl)-2-methyl-6-oxo-1,6-dihydro-pyridin-3-yl]-amide]",6.30 to 7.00
5,"Cc1[nH]c(=O)c(-c2cc3ccccc3[nH]2)cc1NC(=O)c1cnn(Cc2ccc(F)c(F)c2)c1 [Example 33, 1-(3,4-Difluoro-benzyl)-1H-pyrazole-4-carboxylic acid [5-(1H-indol-2-yl)-2-methyl-6-oxo-1,6-dihydro-pyridin-3-yl]-amide]",6.30 to 7.00
6,"O=C(Nc1cnn(CC2CCCCC2)c1)c1c[nH]c(=O)c(-c2cc3ccccc3[nH]2)c1 [Example 34, 5-(1H-Indol-2-yl)-6-oxo-1,6-dihydro-pyridine-3-carboxylic acid (1-cyclohexylmethyl-1H-pyrazol-4-yl)-amide]",5.82 to 6.30
7,"O=C(Nc1cnn(Cc2cccnc2)c1)c1c[nH]c(=O)c(-c2cc3ccccc3[nH]2)c1 [Example 35, 5-(1H-Indol-2-yl)-6-oxo-1,6-dihydro-pyridine-3-carboxylic acid (1-pyridin-3-ylmethyl-1H-pyrazol-4-yl)-amide]",> 7.00
8,"O=C(Nc1cnn(Cc2ccncc2)c1)c1c[nH]c(=O)c(-c2cc3ccccc3[nH]2)c1 [Example 36, 5-(1H-Indol-2-yl)-6-oxo-1,6-dihydro-pyridine-3-carboxylic acid (1-pyridin-4-ylmethyl-1H-pyrazol-4-yl)-amide]",6.30 to 7.00
9,"Cc1ccc(Cn2cc(C(=O)Nc3c[nH]c(=O)c(-c4cc5cc(CN6CCC(F)CC6)ccc5[nH]4)c3)cn2)cc1 [Example 37, 1-(4-Methyl-benzyl)-1H-pyrazole-4-carboxylic acid {5-[5-(4-fluoro-piperidin-1-ylmethyl)-1H-indol-2-yl]-6-oxo-1,6-dihydro-pyridin-3-yl}-amide]",> 7.00
10,"Cc1ccc(Cn2cc(C(=O)Nc3c[nH]c(=O)c(-c4cc5cc(CN6CCC(CO)CC6)ccc5[nH]4)c3)cn2)cc1 [Example 39, 1-(4-Methyl-benzyl)-1H-pyrazole-4-carboxylic acid {5-[5-(4-hydroxymethyl-piperidin-1-ylmethyl)-1H-indol-2-yl]-6-oxo-1,6-dihydro-pyridin-3-yl}-amide]",> 7.00
11,"Cc1ccc(Cn2cc(C(=O)Nc3c[nH]c(=O)c(-c4cc5cc(CN6CCOCC6)ccc5[nH]4)c3)cn2)cc1 [Example 40, 1-(4-Methyl-benzyl)-1H-pyrazole-4-carboxylic acid [5-(5-morpholin-4-ylmethyl-1H-indol-2-yl)-6-oxo-1,6-dihydro-pyridin-3-yl]-amide]",> 7.00
12,"Cc1ccc(Cn2cc(C(=O)Nc3c[nH]c(=O)c(-c4cc5cc(CN6CCCC6)ccc5[nH]4)c3)cn2)cc1 [Example 41, 1-(4-Methyl-benzyl)-1H-pyrazole-4-carboxylic acid [6-oxo-5-(5-pyrrolidin-1-ylmethyl-1H-indol-2-yl)-1,6-dihydro-pyridin-3-yl]-amide]",> 7.00
13,"Cc1ccc(Cn2cc(C(=O)Nc3c[nH]c(=O)c(-c4cc5cc(CN6CC(O)C6)ccc5[nH]4)c3)cn2)cc1 [Example 42, 1-(4-Methyl-benzyl)-1H-pyrazole-4-carboxylic acid {5-[5-(3-hydroxy-azetidin-1-ylmethyl)-1H-indol-2-yl]-6-oxo-1,6-dihydro-pyridin-3-yl}-amide]",> 7.00
14,"Cc1ccc(Cn2cc(C(=O)Nc3c[nH]c(=O)c(-c4cc5cc(CN(C)CCO)ccc5[nH]4)c3)cn2)cc1 [Example 43, 1-(4-Methyl-benzyl)-1H-pyrazole-4-carboxylic acid [5-(5-{[(2-hydroxy-ethyl)-methyl-amino]-methyl}-1H-indol-2-yl)-6-oxo-1,6-dihydro-pyridin-3-yl]-amide]",> 7.00
15,"O=C(Nc1c[nH]c(=O)c(-c2cc3cc(CN4CCCCC4)ccc3[nH]2)c1)c1cnn(Cc2ccc(Cl)cc2)c1 [Example 44, 1-(4-Chloro-benzyl)-1H-pyrazole-4-carboxylic acid [6-oxo-5-(5-piperidin-1-ylmethyl-1H-indol-2-yl)-1,6-dihydro-pyridin-3-yl]-amide]",> 7.00
16,"O=C(Nc1c[nH]c(=O)c(-c2cc3cc(CN4CCC(O)CC4)ccc3[nH]2)c1)c1cnn(Cc2ccc(Cl)cc2)c1 [Example 48, 1-(4-Chloro-benzyl)-1H-pyrazole-4-carboxylic acid {5-[5-(4-hydroxy-piperidin-1-ylmethyl)-1H-indol-2-yl]-6-oxo-1,6-dihydro-pyridin-3-yl}-amide]",> 7.00
17,"O=C(Nc1c[nH]c(=O)c(-c2cc3cc(CN4CCOCC4)ccc3[nH]2)c1)c1cnn(Cc2ccccc2)c1 [Example 51, 1-Benzyl-1H-pyrazole-4-carboxylic acid [5-(5-morpholin-4-ylmethyl-1H-indol-2-yl)-6-oxo-1,6-dihydro-pyridin-3-yl]-amide]",> 7.00
18,"CN1CCN(Cc2ccc3[nH]c(-c4cc(NC(=O)c5cnn(Cc6ccc(Cl)cc6)c5)c[nH]c4=O)cc3c2)CC1 [Example 53, 1-(4-Chloro-benzyl)-1H-pyrazole-4-carboxylic acid {5-[5-(4-methyl-piperazin-1-ylmethyl)-1H-indol-2-yl]-6-oxo-1,6-dihydro-pyridin-3-yl}-amide]",> 7.00

# The remaining lines, values ahead:
row,pIC50,Compound
1,> 7.00,"Cc1cccc(Cn2cc(C(=O)Nc3c[nH]c(=O)c(-c4cc5ccccc5[nH]4)c3)cn2)c1 [Example 26, 1-(3-Methyl-benzyl)-1H-pyrazole-4-carboxylic acid [5-(1H-indol-2-yl)-6-oxo-1,6-dihydro-pyridin-3-yl]-amide]"
2,> 7.00,"O=C(Nc1c[nH]c(=O)c(-c2cc3ccccc3[nH]2)c1)c1cnn(Cc2ccc(Cl)cc2)c1 [Example 28, 1-(4-Chloro-benzyl)-1H-pyrazole-4-carboxylic acid [5-(1H-indol-2-yl)-6-oxo-1,6-dihydro-pyridin-3-yl]-amide]"
3,> 7.00,"Cc1[nH]c(=O)c(-c2cc3ccccc3[nH]2)cc1NC(=O)c1cnn(Cc2ccccc2)c1 [Example 31, 1-Benzyl-1H-pyrazole-4-carboxylic acid [5-(1H-indol-2-yl)-2-methyl-6-oxo-1,6-dihydro-pyridin-3-yl]-amide]"
4,> 7.00,"CCN(CCO)Cc1ccc2[nH]c(-c3cc(NC(=O)c4cnn(Cc5ccc(Cl)cc5)c4)c[nH]c3=O)cc2c1 [Example 45, 1-(4-Chloro-benzyl)-1H-pyrazole-4-carboxylic acid [5-(5-{[ethyl-(2-hydroxy-ethyl)-amino]-methyl}-1H-indol-2-yl)-6-oxo-1,6-dihydro-pyridin-3-yl]-amide]"
5,> 7.00,"O=C(Nc1c[nH]c(=O)c(-c2cc3cc(CNCCO)ccc3[nH]2)c1)c1cnn(Cc2ccc(Cl)cc2)c1 [Example 46, 1-(4-Chloro-benzyl)-1H-pyrazole-4-carboxylic acid (5-{5-[(2-hydroxy-ethylamino)-methyl]-1H-indol-2-yl}-6-oxo-1,6-dihydro-pyridin-3-yl)-amide]"
6,> 7.00,"O=C(Nc1c[nH]c(=O)c(-c2cc3cc(CN4CCC(F)CC4)ccc3[nH]2)c1)c1cnn(Cc2ccc(Cl)cc2)c1 [Example 47, 1-(4-Chloro-benzyl)-1H-pyrazole-4-carboxylic acid {5-[5-(4-fluoro-piperidin-1-ylmethyl)-1H-indol-2-yl]-6-oxo-1,6-dihydro-pyridin-3-yl}-amide]"
7,> 7.00,"O=C(Nc1c[nH]c(=O)c(-c2cc3cc(CN4CCCC4)ccc3[nH]2)c1)c1cnn(Cc2ccccc2)c1 [Example 50, 1-Benzyl-1H-pyrazole-4-carboxylic acid [6-oxo-5-(5-pyrrolidin-1-ylmethyl-1H-indol-2-yl)-1,6-dihydro-pyridin-3-yl]-amide]"
8,> 7.00,"Cc1ccc(Cn2cc(C(=O)Nc3c[nH]c(=O)c(-c4cc5cc(CNCCO)ccc5[nH]4)c3)cn2)cc1 [Example 54, 1-(4-Methyl-benzyl)-1H-pyrazole-4-carboxylic acid {5-[5-[(2-hydroxy-ethylamino)-methyl]-1H-indol-2-yl}-6-oxo-1,6-dihydro-pyridin-3-yl]-amide]"
